{
  "source": "patent US11685785B2",
  "about": "“Methods and antibodies for modulation of immunoresponse” (Ascendo Biotechnology, Inc., priority 2015, dated 2023)",
  "tested_on": "LPS-primed monocytes",
  "test": "Surface molecule expression on LPS-primed human monocytes (flow cytometry)",
  "assay_type": "cell-based",
  "settings": "LPS 100 ng/ml, 18 hr, 10 μM compound vs DMSO control; flow cytometry MFI",
  "method": "Human monocytes were stimulated with LPS (100 ng/ml) in the presence of either an isotype control IgG, or anti-CD11b antibody (ICRF44) for 18 hr. The cells were harvested and HLA-DR, PD-L1, CD80 and CD86 molecules were analyzed using flow cytometry. Surface molecule expression is presented as the MFI. Values are presented as the mean±SEM from 3 independent experiments.\nFIGS. 2 A and B show the effect of cell adhesion to fibrinogen and reduction of PD-L1 expression by binding CD11b, respectively. […] 25000 of K562/CD11b cells adhered to the bottom of fibrinogen (20 μg/ml)-coated wells in the presence of 10 μM ML-C19-A or DMSO at 37° C. for 20 min. The results were quantitated by luciferase-based CellTiter-Glo (Promega CO.). Each bar represents mean±SEM of triplicate determinations from a representative experiment. […] Human monocytes were stimulated with LPS (100 ng/ml) in the presence of either DMSO control or 10 μM of ML-C19-A for 18 hr. The cells were harvested and PD-L1 molecules were analyzed using flow cytometry. Surface molecule expression is presented as the MFI. Values are presented as the mean±SEM from 10 independent experiments.\nPrimed-monocytes were incubated in the presence of either an isotype control IgG, anti-CD11b antibody (ICRF44) or humanized anti-CD11b antibodies for 18 hr. The cells were harvested and PD-L1 expression on monocytes was analyzed using flow cytometry. […]",
  "data": [
    {"smiles": "NS(=O)(=O)c1ccc(N2C(=O)c3cccc4cccc(c34)C2=O)cc1", "note": "[ML-C19-A]", "values": [
      {"measurement": "PD-L1 expression in LPS-primed monocytes", "result": "inhibitory"}
    ]}
  ]
}
